This is an account of results in US9238619B2, “Phenalkylamine derivatives, pharmaceutical compositions containing them, and their use in therapy” (AbbVie Deutschland GmbH & Co. KG, priority 2010, dated 2016).

Where a name gives a salt, the structure may show the parent alone.

human GlyT1c transporter, sequence (P48067 whole entry): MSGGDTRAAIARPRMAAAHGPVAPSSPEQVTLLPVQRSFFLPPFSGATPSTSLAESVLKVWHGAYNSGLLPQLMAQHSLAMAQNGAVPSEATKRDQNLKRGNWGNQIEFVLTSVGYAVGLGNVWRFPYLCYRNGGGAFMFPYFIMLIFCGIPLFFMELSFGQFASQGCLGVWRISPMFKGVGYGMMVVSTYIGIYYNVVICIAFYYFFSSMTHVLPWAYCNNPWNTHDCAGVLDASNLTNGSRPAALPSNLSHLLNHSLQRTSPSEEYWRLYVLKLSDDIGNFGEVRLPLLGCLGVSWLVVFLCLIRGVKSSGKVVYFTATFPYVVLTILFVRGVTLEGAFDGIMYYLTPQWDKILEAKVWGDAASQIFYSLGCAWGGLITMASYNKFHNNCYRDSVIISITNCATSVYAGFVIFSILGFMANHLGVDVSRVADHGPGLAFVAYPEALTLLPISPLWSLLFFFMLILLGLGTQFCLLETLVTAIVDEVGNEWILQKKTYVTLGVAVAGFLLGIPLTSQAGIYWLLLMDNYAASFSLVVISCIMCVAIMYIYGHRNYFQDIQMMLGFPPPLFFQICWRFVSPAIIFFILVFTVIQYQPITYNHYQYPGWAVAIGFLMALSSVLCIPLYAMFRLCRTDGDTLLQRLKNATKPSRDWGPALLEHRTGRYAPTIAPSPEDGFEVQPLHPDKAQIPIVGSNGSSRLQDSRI

The test concerns the target human GlyT1c transporter (Homo sapiens (Human), UniProt P48067). As to the kind of experiment: Radioligand binding assays using recombinant CHO cell membranes expressing human GlyT1. Conditions: read-out: radioligand binding Kiapp. As to the method: Radioligand binding to human GlyT1c transporter-expressing membranes was determined as described in Mezler et al., Molecular Pharmacology 74:1705-1715, 2008.
For the compound `Cn1cnc(S(=O)(=O)NCCOc2ccc(F)c(C(CN)Cc3ccccc3)c2)c1` (centres unmarked) [Example 1, 1-Methyl-1H-imidazole-4-sulfonic acid {2-[3-(2-amino-1-benzyl-ethyl)-4-fluoro-phenoxy]-ethyl}-amide hydrochloride], the Ki was ≤ 1000 nM.

`Cn1cc(S(=O)(=O)NCCOc2cccc(C(CN)Cc3cccc(Cl)c3)c2)cn1` (centres unmarked) [Example 2, 1-Methyl-1H-pyrazole-4-sulfonic acid (2-{3-[2-amino-1-(3-chloro-benzyl)ethyl]-phenoxy}-ethyl)-amide, hydrochloride]: the Ki is ≤ 1000 nM.

Regarding `Cn1cc(S(=O)(=O)NCCOc2cc(C(CN)Cc3ccccc3)ccc2F)cn1` (centres unmarked) [Example 3, 1-Methyl-1H-pyrazole-4-sulfonic acid {2-[5-(2-amino-1-benzyl-ethyl)-2-fluoro-phenoxy]-ethyl}-amide, hydrochloride], the Ki was ≤ 100 nM.

As for `Cn1cnc(S(=O)(=O)NCCOc2cc(C(CN)Cc3ccccc3)ccc2F)c1` (centres unmarked) [Example 4, 1-Methyl-1H-imidazole-4-sulfonic acid {2-[5-(2-amino-1-benzyl-ethyl)-2-fluoro-phenoxy]-ethyl}-amide, hydrochloride], the Ki was ≤ 100 nM.

`Cn1cnc(S(=O)(=O)NCCOc2cccc(C(CN)Cc3ccccc3)c2)c1` (centres unmarked) [Example 5, 1-Methyl-1H-imidazole-4-sulfonic acid {2-[3-(2-amino-1-benzyl-ethyl)phenoxy]-ethyl}-amide]: the Ki was ≤ 100 nM.

With `Cn1cc(S(=O)(=O)NCCOc2cccc(C(CN)Cc3ccccc3)c2)cn1` (centres unmarked) [Example 6, 1-Methyl-1H-pyrazole-4-sulfonic acid {2-[3-(2-amino-1-benzyl-ethyl)-phenoxy]-ethyl}-amide, hydrochloride], the Ki was ≤ 100 nM.

Consider `Cn1cc(S(=O)(=O)NCCOc2cccc(C(CN)Cc3cc(F)cc(F)c3)c2)cn1` (centres unmarked) [Example 7, 1-Methyl-1H-pyrazole-4-sulfonic acid (2-{3-[2-amino-1-(3,5-difluoro-benzyl)ethyl]-phenoxy}-ethyl)-amide, hydrochloride], for which the Ki was ≤ 1000 nM.

With `Cn1cc(S(=O)(=O)NCCOc2cccc(C(CN)Cc3ccc(Cl)cc3)c2)cn1` (centres unmarked) [Example 8, 1-Methyl-1H-pyrazole-4-sulfonic acid (2-{3-[2-amino-1-(4-chloro-benzyl)ethyl]-phenoxy}-ethyl)-amide, hydrochloride], the Ki is ≤ 1000 nM.

On to `Cn1cnc(S(=O)(=O)NCCOc2cccc(C(CN)Cc3cccc(Cl)c3)c2)c1` (centres unmarked) [Example 9, 1-Methyl-1H-imidazole-4-sulfonic acid (2-{3-[2-amino-1-(3-chloro-benzyl)ethyl]-phenoxy}-ethyl)-amide, hydrochloride], for which the Ki is ≤ 1000 nM.

Turning to `Cn1cc(S(=O)(=O)NCCOc2cccc(C(CN)Cc3cccc(C(F)(F)F)c3)c2)cn1` (centres unmarked) [Example 10, 1-Methyl-1H-pyrazole-4-sulfonic acid (2-{3-[2-amino-1-(3-trifluoromethylbenzyl)-ethyl]-phenoxy}-ethyl)-amide, hydrochloride], the Ki is ≤ 100 nM.

In the case of `Cn1cnc(S(=O)(=O)NCCOc2cccc(C(CN)Cc3cc(F)cc(F)c3)c2)c1` (centres unmarked) [Example 11, 1-Methyl-1H-imidazole-4-sulfonic acid (2-{3-[2-amino-1-(3,5-difluoro-benzyl)ethyl]-phenoxy}-ethyl)-amide, hydrochloride], the Ki is ≤ 1000 nM.

As for `Cn1cnc(S(=O)(=O)NCCOc2cccc(C(CN)Cc3cccc(C(F)(F)F)c3)c2)c1` (centres unmarked) [Example 12, 1-Methyl-1H-imidazole-4-sulfonic acid (2-{3-[2-amino-1-(3-trifluoromethylbenzyl)-ethyl]-phenoxy}-ethyl)-amide, hydrochloride], the Ki is ≤ 100 nM.

Consider `NCC(Cc1ccccc1)c1cccc(CNS(=O)(=O)CC2CC2)c1` (centres unmarked) [Example 14, N-[3-(2-Amino-1-benzyl-ethyl)-benzyl]-C-cyclopropyl-methanesulfonamide], for which the Ki is ≤ 10000 nM.

`Cn1cc(S(=O)(=O)NCc2cccc(C(Cc3ccccc3)C(N)=O)c2)cn1` (centres unmarked) [Example 15, 2-{3-[(1-Methyl-1H-pyrazole-4-sulfonylamino)-methyl]-phenyl}-3-phenyl-propionamide]: the Ki is ≤ 10000 nM.

Consider `Cn1cnc(S(=O)(=O)NCc2cccc(C(Cc3ccccc3)C(N)=O)c2)c1` (centres unmarked) [Example 16, 2-{3-[(1-Methyl-1H-imidazole-4-sulfonylamino)-methyl]-phenyl}-3-phenyl-propionamide], for which the Ki was ≤ 10000 nM.

With `Cn1cnc(S(=O)(=O)NCc2cccc(C(Cc3ccccc3)C(=O)N3CCOCC3)c2)c1` (centres unmarked) [Example 17, 1-Methyl-1H-imidazole-4-sulfonic acid 3-(1-benzyl-2-morpholin-4-yl-2-oxo-ethyl)-benzylamide], the Ki was ≤ 10000 nM.

Consider `Cn1cc(S(=O)(=O)NCc2cccc(C(CN)Cc3ccccc3)c2)cn1` (centres unmarked) [Example 18, 1-Methyl-1H-pyrazole-4-sulfonic acid 3-(2-amino-1-benzyl-ethyl)benzylamide, hydrochloride], for which the Ki was ≤ 100 nM.

Take `Cn1cnc(S(=O)(=O)NCc2cccc(C(CN)Cc3ccccc3)c2)c1` (centres unmarked) [Example 19, 1-Methyl-1H-imidazole-4-sulfonic acid 3-(2-amino-1-benzyl-ethyl)benzylamide, hydrochloride]: the Ki was ≤ 1000 nM.

As for `Cn1cnc(S(=O)(=O)NCc2cccc(C(Cc3ccccc3)CN3CCOCC3)c2)c1` (centres unmarked) [Example 20, 1-Methyl-1H-imidazole-4-sulfonic acid 3-(1-benzyl-2-morpholin-4-yl-ethyl)benzylamide], the Ki was ≤ 10000 nM.

Consider `Cn1cc(S(=O)(=O)NCc2cccc(C(Cc3ccccc3)CN3CCOCC3)c2)cn1` (centres unmarked) [Example 21, 1-Methyl-1H-pyrazole-4-sulfonic acid 3-(1-benzyl-2-morpholin-4-yl-ethyl)benzylamide], for which the Ki is ≤ 1000 nM.

On to `O=S(=O)(CC1CC1)NCc1cccc(C(Cc2ccccc2)CN2CCOCC2)c1` (centres unmarked) [Example 22, N-[3-(1-Benzyl-2-morpholin-4-yl-ethyl)-benzyl]-C-cyclopropyl-methanesulfonamide, hydrochloride], for which the Ki was ≤ 10000 nM.

In the case of `CN(C)CC(Cc1ccccc1)c1cc(OCCNS(=O)(=O)c2cn(C)cn2)ccc1F` (centres unmarked) [Example 23, 1-Methyl-1H-imidazole-4-sulfonic acid {2-[3-(1-benzyl-2-dimethylamino-ethyl)-4-fluoro-phenoxy]-ethyl}-amide], the Ki was ≤ 100 nM.

Take `CN(C)CC(Cc1ccccc1)c1cccc(OCCNS(=O)(=O)c2cnn(C)c2)c1` (centres unmarked) [Example 24, 1-Methyl-1H-pyrazole-4-sulfonic acid {2-[3-(1-benzyl-2-dimethylamino-ethyl)phenoxy]-ethyl}-amide]: the Ki was ≤ 100 nM.

With `CN(C)CC(Cc1ccccc1)c1cccc(OCCNS(=O)(=O)c2cn(C)cn2)c1` (centres unmarked) [Example 25, 1-Methyl-1H-imidazole-4-sulfonic acid {2-[3-(1-benzyl-2-dimethylaminoethyl)-phenoxy]-ethyl}-amide], the Ki is ≤ 1000 nM.

For the compound `CN(C)CC(Cc1ccccc1)c1cccc(CNS(=O)(=O)c2cn(C)cn2)c1` (centres unmarked) [Example 26, 1-Methyl-1H-imidazole-4-sulfonic acid 3-(1-benzyl-2-dimethylamino-ethyl)benzylamide], the Ki is ≤ 1000 nM.

Turning to `CN(C)CC(Cc1ccccc1)c1cccc(CNS(=O)(=O)c2cnn(C)c2)c1` (centres unmarked) [Example 27, 1-Methyl-1H-pyrazole-4-sulfonic acid 3-(1-benzyl-2-dimethylamino-ethyl)benzylamide], the Ki was ≤ 1000 nM.
